Source: PubChem BioAssay (NCI)
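These data come from cells grown in 96-well plates and exposed to compound for 48 hours at five concentrations. Here, GI50 denotes the concentration required for 50% inhibition of growth. TGI is the concentration that stops growth completely.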

Tests used:
Experiment in all cases: NCI tumour cell line growth inhibition, 48 h
786-0 renal = tested on: 786-0 renal
A498 renal = tested on: A498 renal
A549 NSCLC = tested on: A549 NSCLC
ACHN renal = tested on: ACHN renal
BT-549 breast = tested on: BT-549 breast
CAKI-1 renal = tested on: CAKI-1 renal
CCRF-CEM leukemia = tested on: CCRF-CEM leukemia
COLO 205 colon = tested on: COLO 205 colon
DU-145 prostate = tested on: DU-145 prostate
EKVX NSCLC = tested on: EKVX NSCLC
HCC-2998 colon = tested on: HCC-2998 colon
HCT-116 colon = tested on: HCT-116 colon
HCT-15 colon = tested on: HCT-15 colon
HL-60(TB) leukemia = tested on: HL-60(TB) leukemia
HOP-62 NSCLC = tested on: HOP-62 NSCLC
HOP-92 NSCLC = tested on: HOP-92 NSCLC
HS 578T breast = tested on: HS 578T breast
HT29 colon = tested on: HT29 colon
IGROV1 ovarian = tested on: IGROV1 ovarian
K-562 leukemia = tested on: K-562 leukemia
KM12 colon = tested on: KM12 colon
LOX IMVI melanoma = tested on: LOX IMVI melanoma
M14 melanoma = tested on: M14 melanoma
MALME-3M melanoma = tested on: MALME-3M melanoma
MCF7 breast = tested on: MCF7 breast
MDA-MB-231 breast = tested on: MDA-MB-231 breast
MDA-MB-435 = tested on: MDA-MB-435
MDA-N = tested on: MDA-N
MOLT-4 leukemia = tested on: MOLT-4 leukemia
NCI-H226 lung = tested on: NCI-H226 lung
NCI-H23 lung = tested on: NCI-H23 lung
NCI-H460 lung = tested on: NCI-H460 lung
NCI-H522 lung = tested on: NCI-H522 lung
NCI/ADR-RES ovarian = tested on: NCI/ADR-RES ovarian
OVCAR-3 ovarian = tested on: OVCAR-3 ovarian
OVCAR-4 ovarian = tested on: OVCAR-4 ovarian
OVCAR-5 ovarian = tested on: OVCAR-5 ovarian
OVCAR-8 ovarian = tested on: OVCAR-8 ovarian
RPMI-8226 leukemia = tested on: RPMI-8226 leukemia
RXF 393 renal = tested on: RXF 393 renal
SF-268 CNS = tested on: SF-268 CNS
SF-295 CNS = tested on: SF-295 CNS
SF-539 CNS = tested on: SF-539 CNS
SK-MEL-2 melanoma = tested on: SK-MEL-2 melanoma
SK-MEL-28 melanoma = tested on: SK-MEL-28 melanoma
SK-MEL-5 melanoma = tested on: SK-MEL-5 melanoma
SK-OV-3 ovarian = tested on: SK-OV-3 ovarian
SN12C renal = tested on: SN12C renal
SNB-19 CNS = tested on: SNB-19 CNS
SW-620 colon = tested on: SW-620 colon
T-47D breast = tested on: T-47D breast
TK-10 renal = tested on: TK-10 renal
U251 CNS = tested on: U251 CNS
UACC-257 melanoma = tested on: UACC-257 melanoma
UACC-62 melanoma = tested on: UACC-62 melanoma
UO-31 renal = tested on: UO-31 renal
PC-3 prostate = tested on: PC-3 prostate
SNB-75 CNS = tested on: SNB-75 CNS
SR leukemia = tested on: SR leukemia

O=c1[nH]nc(Cc2ccccc2)n1/N=C/c1ccccc1O
TGI (786-0 renal): > 100 µM | TGI (A498 renal): > 100 µM | TGI (A549 NSCLC): > 100 µM | TGI (ACHN renal): > 100 µM | TGI (BT-549 breast): > 100 µM | TGI (CAKI-1 renal): > 100 µM | TGI (CCRF-CEM leukemia): > 100 µM | TGI (COLO 205 colon): > 100 µM | TGI (DU-145 prostate): > 100 µM | TGI (EKVX NSCLC): > 100 µM | TGI (HCC-2998 colon): > 100 µM | TGI (HCT-116 colon): > 100 µM | TGI (HCT-15 colon): > 100 µM | TGI (HL-60(TB) leukemia): > 100 µM | TGI (HOP-62 NSCLC): 99.8 µM | TGI (HOP-92 NSCLC): > 100 µM | TGI (HS 578T breast): > 100 µM | TGI (HT29 colon): > 100 µM | TGI (IGROV1 ovarian): > 100 µM | TGI (K-562 leukemia): > 100 µM | TGI (KM12 colon): > 100 µM | TGI (LOX IMVI melanoma): > 100 µM | TGI (M14 melanoma): > 100 µM | TGI (MALME-3M melanoma): > 100 µM | TGI (MCF7 breast): > 100 µM | TGI (MDA-MB-231 breast): > 100 µM | TGI (MDA-MB-435): > 100 µM | TGI (MDA-N): > 100 µM | TGI (MOLT-4 leukemia): > 100 µM | TGI (NCI-H226 lung): > 100 µM | TGI (NCI-H23 lung): > 100 µM | TGI (NCI-H460 lung): > 100 µM | TGI (NCI-H522 lung): > 100 µM | TGI (NCI/ADR-RES ovarian): > 100 µM | TGI (OVCAR-3 ovarian): > 100 µM | TGI (OVCAR-4 ovarian): > 100 µM | TGI (OVCAR-5 ovarian): > 100 µM | TGI (OVCAR-8 ovarian): > 100 µM | TGI (RPMI-8226 leukemia): > 100 µM | TGI (RXF 393 renal): 53.5 µM | TGI (SF-268 CNS): > 100 µM | TGI (SF-295 CNS): > 100 µM | TGI (SF-539 CNS): > 100 µM | TGI (SK-MEL-2 melanoma): > 100 µM | TGI (SK-MEL-28 melanoma): > 100 µM | TGI (SK-MEL-5 melanoma): > 100 µM | TGI (SK-OV-3 ovarian): > 100 µM | TGI (SN12C renal): > 100 µM | TGI (SNB-19 CNS): > 100 µM | TGI (SW-620 colon): > 100 µM | TGI (T-47D breast): > 100 µM | TGI (TK-10 renal): > 100 µM | TGI (U251 CNS): > 100 µM | TGI (UACC-257 melanoma): > 100 µM | TGI (UACC-62 melanoma): > 100 µM | TGI (UO-31 renal): > 100 µM

CCOC(=O)C(Cc1ccc(CCCC(=O)NCCC(=O)Nc2ccc3nc(C)sc3c2)cc1)C(=O)OCC
GI50 (786-0 renal): > 77.9 µM | TGI (786-0 renal): > 100 µM | GI50 (A498 renal): > 100 µM | TGI (A498 renal): > 100 µM | GI50 (A549 NSCLC): 59.1 µM | TGI (A549 NSCLC): > 100 µM | GI50 (ACHN renal): 18.2 µM | TGI (ACHN renal): 34.3 µM | GI50 (BT-549 breast): 23.7 µM | TGI (BT-549 breast): 72.8 µM | GI50 (CAKI-1 renal): 49.1 µM | TGI (CAKI-1 renal): > 100 µM | GI50 (CCRF-CEM leukemia): 28.6 µM | TGI (CCRF-CEM leukemia): > 89.3 µM | GI50 (COLO 205 colon): 32.3 µM | TGI (COLO 205 colon): > 96.4 µM | GI50 (DU-145 prostate): 51.1 µM | TGI (DU-145 prostate): > 100 µM | GI50 (EKVX NSCLC): 53.7 µM | TGI (EKVX NSCLC): > 100 µM | GI50 (HCC-2998 colon): 60.4 µM | TGI (HCC-2998 colon): > 100 µM | GI50 (HCT-116 colon): 45.8 µM | TGI (HCT-116 colon): > 100 µM | GI50 (HCT-15 colon): 31.8 µM | TGI (HCT-15 colon): > 100 µM | GI50 (HL-60(TB) leukemia): 23.7 µM | TGI (HL-60(TB) leukemia): 64.7 µM | GI50 (HOP-62 NSCLC): > 83.3 µM | TGI (HOP-62 NSCLC): > 100 µM | GI50 (HOP-92 NSCLC): 55.6 µM | TGI (HOP-92 NSCLC): > 100 µM | GI50 (HS 578T breast): 68.3 µM | TGI (HS 578T breast): > 100 µM | GI50 (HT29 colon): > 64.2 µM | TGI (HT29 colon): > 100 µM | GI50 (IGROV1 ovarian): 64.8 µM | TGI (IGROV1 ovarian): > 100 µM | GI50 (K-562 leukemia): 47.3 µM | TGI (K-562 leukemia): > 100 µM | GI50 (KM12 colon): 33.4 µM | TGI (KM12 colon): > 100 µM | GI50 (LOX IMVI melanoma): 33.2 µM | TGI (LOX IMVI melanoma): > 100 µM | GI50 (M14 melanoma): 29.3 µM | TGI (M14 melanoma): > 93.8 µM | GI50 (MALME-3M melanoma): 28.3 µM | TGI (MALME-3M melanoma): > 84.4 µM | GI50 (MCF7 breast): 22.2 µM | TGI (MCF7 breast): 64.3 µM | GI50 (MDA-MB-231 breast): 52.5 µM | TGI (MDA-MB-231 breast): > 100 µM | GI50 (MDA-MB-435): 26 µM | TGI (MDA-MB-435): 76.5 µM | GI50 (MOLT-4 leukemia): 21.3 µM | TGI (MOLT-4 leukemia): 54.5 µM | GI50 (NCI-H226 lung): 36.1 µM | TGI (NCI-H226 lung): > 100 µM | GI50 (NCI-H23 lung): 28.9 µM | TGI (NCI-H23 lung): > 93.7 µM | GI50 (NCI-H460 lung): > 62.4 µM | TGI (NCI-H460 lung): > 100 µM | GI50 (NCI-H522 lung): 33.1 µM | TGI (NCI-H522 lung): > 100 µM | GI50 (NCI/ADR-RES ovarian): 24.6 µM | TGI (NCI/ADR-RES ovarian): 69.1 µM | GI50 (OVCAR-3 ovarian): 54.9 µM | TGI (OVCAR-3 ovarian): > 100 µM | GI50 (OVCAR-4 ovarian): 38.1 µM | TGI (OVCAR-4 ovarian): > 100 µM | GI50 (OVCAR-5 ovarian): > 100 µM | TGI (OVCAR-5 ovarian): > 100 µM | GI50 (OVCAR-8 ovarian): 20.1 µM | TGI (OVCAR-8 ovarian): 42.1 µM | GI50 (PC-3 prostate): 24.3 µM | TGI (PC-3 prostate): > 70.7 µM | GI50 (RPMI-8226 leukemia): 21.1 µM | TGI (RPMI-8226 leukemia): 53.4 µM | GI50 (RXF 393 renal): 36.4 µM | TGI (RXF 393 renal): > 100 µM | GI50 (SF-268 CNS): > 78 µM | TGI (SF-268 CNS): > 100 µM | GI50 (SF-295 CNS): 49.4 µM | TGI (SF-295 CNS): > 100 µM | GI50 (SF-539 CNS): 42.5 µM | TGI (SF-539 CNS): > 82.6 µM | GI50 (SK-MEL-2 melanoma): 33 µM | TGI (SK-MEL-2 melanoma): > 62 µM | GI50 (SK-MEL-28 melanoma): 28.7 µM | TGI (SK-MEL-28 melanoma): > 96.7 µM | GI50 (SK-MEL-5 melanoma): 15.4 µM | TGI (SK-MEL-5 melanoma): 29.2 µM | GI50 (SK-OV-3 ovarian): > 100 µM | TGI (SK-OV-3 ovarian): > 100 µM | GI50 (SN12C renal): 31.4 µM | TGI (SN12C renal): > 100 µM | GI50 (SNB-19 CNS): > 100 µM | TGI (SNB-19 CNS): > 100 µM | GI50 (SNB-75 CNS): > 52.1 µM | TGI (SNB-75 CNS): > 100 µM | GI50 (SR leukemia): 50.8 µM | TGI (SR leukemia): > 100 µM | GI50 (SW-620 colon): > 93.2 µM | TGI (SW-620 colon): > 100 µM | GI50 (T-47D breast): 19.7 µM | TGI (T-47D breast): 74.1 µM | GI50 (TK-10 renal): > 100 µM | TGI (TK-10 renal): > 100 µM | GI50 (U251 CNS): > 81.4 µM | TGI (U251 CNS): > 100 µM | GI50 (UACC-257 melanoma): 34.7 µM | TGI (UACC-257 melanoma): > 87.1 µM | GI50 (UACC-62 melanoma): 26.2 µM | TGI (UACC-62 melanoma): > 69.5 µM | GI50 (UO-31 renal): 26.9 µM | TGI (UO-31 renal): > 76.8 µM
